ChEMBL document CHEMBL5257030, “Antioxidant, anticancer activities and mechanistic studies of the flavone glycoside diosmin and its oxidovanadium(IV) complex. Interactions with bovine serum albumin” (Bioorg Med Chem, 2016)
The source made the active and inactive calls. The rule behind the calls is not given here.

Experiments:
[1] = Antioxidant activity assessed as reduction in PMS induced superoxide anion activity preincubated for 15 mins followed by PMS addition and measured after 5 mins by NBT assay; type: functional; conditions: time 20.0 min
[2] = Antioxidant activity assessed as DPPH radical scavenging activity at 100 uM incubated for 60 mins in dark relative to control; type: functional
[3] = Antioxidant activity assessed as reduction in ascorbate-iron-H2O2-mediated hydroxy radical generation at 100 uM after 30 mins by thiobarbituric acid method; type: functional
[4] = Antioxidant activity assessed as delay in time of AAPH-induced pyranine consumption at 100 uM by spectrophotometric analysis; type: functional
[5] = tested on: A549; experiment: Cytotoxicity against human A549 cells assessed as reduction in cell viability up to 100 uM measured after 24 hrs by crystal violet staining based assay; type: functional
[6] = tested on: A549; experiment: Cytotoxicity in human A549 cells assessed as increase in DHR123 oxidation to form rhodamine 123 measured after 30 mins by fluorescence spectroscopy; type: functional, cell-based
[7] = tested on: MDA-MB-231; experiment: Antiproliferative activity against human MDA-MB-231 cells assessed as inhibition of cell growth measured after 24 hrs by MTT assay; type: functional, cell-based; conditions: MDA-MB-231, 24 h
[8] = tested on: SK-BR-3; experiment: Antiproliferative activity against human SK-BR-3 cells assessed as inhibition of cell growth measured after 24 hrs by MTT assay; type: functional, cell-based; conditions: SK-BR-3, 24 h
[9] = tested on: T47D; experiment: Antiproliferative activity against human T47D cells assessed as inhibition of cell growth measured after 24 hrs by MTT assay; type: functional, cell-based
[10] = tested on: T47D; experiment: Cytotoxicity against human T47D cells assessed as ROS production at 10 uM after 24 hrs by CMH2DCFDA probe-based fluorescence assay relative to control; type: functional
[11] = tested on: T47D; experiment: Cytotoxicity against human T47D cells assessed as disruption of mitochondrial membrane potential by measuring TMRM level in mitochondria at 10 uM after 24 hrs by fluorescence assay relative to control; type: functional
[12] = tested on: T47D; experiment: Cytotoxicity against human T47D cells assessed as caspase3/7 activation at 10 uM after 24 hrs by fluorescence assay relative to control; type: functional
[13] = tested on: SK-BR-3; experiment: Cytotoxicity against human SK-BR-3 cells assessed as ROS production at 10 uM after 24 hrs by CMH2DCFDA probe-based fluorescence assay relative to control; type: functional
[14] = tested on: SK-BR-3; experiment: Cytotoxicity against human SK-BR-3 cells assessed as disruption of mitochondrial membrane potential by measuring TMRM level in mitochondria at 10 uM after 24 hrs by fluorescence assay relative to control; type: functional
[15] = tested on: SK-BR-3; experiment: Cytotoxicity against human SK-BR-3 cells assessed as caspase3/7 activation at 10 uM after 24 hrs by fluorescence assay relative to control; type: functional
[16] = tested on: MDA-MB-231; experiment: Cytotoxicity against human MDA-MB-231 cells assessed as ROS production at 10 uM after 24 hrs by CMH2DCFDA probe-based fluorescence assay relative to control; type: functional
[17] = tested on: MDA-MB-231; experiment: Cytotoxicity against human MDA-MB-231 cells assessed as disruption of mitochondrial membrane potential by measuring TMRM level in mitochondria at 10 uM after 24 hrs by fluorescence assay relative to control; type: functional
[18] = tested on: MDA-MB-231; experiment: Cytotoxicity against human MDA-MB-231 cells assessed as caspase3/7 activation at 10 uM after 24 hrs by fluorescence assay relative to control; type: functional
[19] = target: T1, Albumin (Bos taurus, UniProt P02769); experiment: Binding affinity to bovine serum albumin assessed as Stem-Volmer quenching constant at 298 K after 1 hr by luminescence spectrometric analysis; conditions: cattle
T1 sequence (P02769 whole entry): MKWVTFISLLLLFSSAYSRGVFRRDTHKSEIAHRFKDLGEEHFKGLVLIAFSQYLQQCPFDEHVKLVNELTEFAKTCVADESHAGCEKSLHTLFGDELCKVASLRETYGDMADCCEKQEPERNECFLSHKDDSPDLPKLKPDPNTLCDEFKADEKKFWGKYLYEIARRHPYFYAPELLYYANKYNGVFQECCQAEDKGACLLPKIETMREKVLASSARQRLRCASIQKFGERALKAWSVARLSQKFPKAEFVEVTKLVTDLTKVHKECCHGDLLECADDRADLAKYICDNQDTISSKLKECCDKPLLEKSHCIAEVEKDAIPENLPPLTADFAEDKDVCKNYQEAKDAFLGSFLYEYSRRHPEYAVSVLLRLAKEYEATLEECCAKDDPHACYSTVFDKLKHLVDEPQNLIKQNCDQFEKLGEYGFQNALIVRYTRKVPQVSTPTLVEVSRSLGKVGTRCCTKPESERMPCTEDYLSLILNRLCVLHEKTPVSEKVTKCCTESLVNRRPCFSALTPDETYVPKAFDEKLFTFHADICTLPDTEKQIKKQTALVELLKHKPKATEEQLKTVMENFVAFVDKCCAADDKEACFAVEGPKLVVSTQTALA

[20] = target: T1, Albumin; experiment: Binding affinity to bovine serum albumin assessed as Stem-Volmer quenching constant at 303 K after 1 hr by luminescence spectrometric analysis; conditions: cattle
[21] = target: T1, Albumin; experiment: Binding affinity to bovine serum albumin assessed as Stem-Volmer quenching constant at 310 K after 1 hr by luminescence spectrometric analysis; conditions: cattle
[22] = target: T1, Albumin; experiment: Binding affinity to bovine serum albumin assessed as quenching rate constant at 298 K after 1 hr by luminescence spectrometric analysis; conditions: cattle
[23] = target: T1, Albumin; experiment: Binding affinity to bovine serum albumin assessed as quenching rate constant at 303 K after 1 hr by luminescence spectrometric analysis; conditions: cattle
[24] = target: T1, Albumin; experiment: Binding affinity to bovine serum albumin assessed as quenching rate constant at 310 K after 1 hr by luminescence spectrometric analysis; conditions: cattle
[25] = target: T1, Albumin; experiment: Binding affinity to bovine serum albumin assessed as association constant at 298 K after 1 hr by luminescence spectrometric analysis; conditions: cattle
[26] = target: T1, Albumin; experiment: Binding affinity to bovine serum albumin assessed as association constant at 303 K after 1 hr by luminescence spectrometric analysis; conditions: cattle
[27] = target: T1, Albumin; experiment: Binding affinity to bovine serum albumin assessed as association constant at 310 K after 1 hr by luminescence spectrometric analysis; conditions: cattle
[28] = tested on: A549; experiment: Antiproliferative activity against human A549 cells after 72 hrs by Alamar blue assay; type: functional, cell-based; conditions: A549, 72 h
[29] = target: T1, Albumin; experiment: Binding affinity to bovine serum albumin assessed as change in enthalpy; conditions: cattle
[30] = target: T1, Albumin; experiment: Binding affinity to bovine serum albumin assessed as free energy change at 298 K; conditions: cattle
[31] = target: T1, Albumin; experiment: Binding affinity to bovine serum albumin assessed as free energy change at 303 K; conditions: cattle
[32] = target: T1, Albumin; experiment: Binding affinity to bovine serum albumin assessed as free energy change at 310 K; conditions: cattle

With COc1ccc(-c2cc(=O)c3c(O)cc(O[C@@H]4O[C@H](CO[C@@H]5O[C@@H](C)[C@H](O)[C@@H](O)[C@H]5O)[C@@H](O)[C@H](O)[C@H]4O)cc3o2)cc1O [DIOSMIN] the Activity [1] was “inactive”, the Activity [2] was 14% and the Activity [3] was “inactive”. For the same molecule, the TIME [4] was 0.0233 h, the Activity [5] was “inactive” and the Activity [6] was “inactive”. It also gave an IC50 [7] of 70 µM, an IC50 [8] greater than 100 µM and an IC50 [9] greater than 100 µM. The Activity [10] was 105%, the Activity [11] was 96% and the Activity [12] was 99%. For the same molecule, the Activity [13] was 104%, the Activity [14] was 78% and the Activity [15] was 116%. For the same molecule, the Activity [16] was 110%, the Activity [17] was 104% and the Activity [18] was 106%. For the same molecule, the KSV [19] was 3.08 10^4L/mol, the KSV [20] was 1.95 10^4L/mol and the KSV [21] was 1.18 10^4L/mol. The Kq [22] was 3.08 10^12L/mol/s, the Kq [23] was 1.95 10^12L/mol/s and the Kq [24] was 1.18 10^12L/mol/s. The Ka [25] was 1.84 10^4L/mol, the Ka [26] was 0.88 10^4L/mol and the Ka [27] was 0.19 10^4L/mol. The IC50 [28] was greater than 40 µM, the deltaH [29] was -146.68 kJ/mol and the deltaG [30] was -24.53 kJ/mol. The deltaG [31] was -22.48 kJ/mol and the deltaG [32] was -19.61 kJ/mol.
